Reference: paper PMC6973046 (Journal of Thrombosis and Haemostasis, 2019)

Tests used:
[1] = target: T1, tissue transglutaminase (Homo sapiens, UniProt P21980); experiment: Isopeptidase assay; format: biochemical; conditions: read-out: IC50 against tissue transglutaminase in the isopeptidase assay
T1 sequence (P21980 1-687): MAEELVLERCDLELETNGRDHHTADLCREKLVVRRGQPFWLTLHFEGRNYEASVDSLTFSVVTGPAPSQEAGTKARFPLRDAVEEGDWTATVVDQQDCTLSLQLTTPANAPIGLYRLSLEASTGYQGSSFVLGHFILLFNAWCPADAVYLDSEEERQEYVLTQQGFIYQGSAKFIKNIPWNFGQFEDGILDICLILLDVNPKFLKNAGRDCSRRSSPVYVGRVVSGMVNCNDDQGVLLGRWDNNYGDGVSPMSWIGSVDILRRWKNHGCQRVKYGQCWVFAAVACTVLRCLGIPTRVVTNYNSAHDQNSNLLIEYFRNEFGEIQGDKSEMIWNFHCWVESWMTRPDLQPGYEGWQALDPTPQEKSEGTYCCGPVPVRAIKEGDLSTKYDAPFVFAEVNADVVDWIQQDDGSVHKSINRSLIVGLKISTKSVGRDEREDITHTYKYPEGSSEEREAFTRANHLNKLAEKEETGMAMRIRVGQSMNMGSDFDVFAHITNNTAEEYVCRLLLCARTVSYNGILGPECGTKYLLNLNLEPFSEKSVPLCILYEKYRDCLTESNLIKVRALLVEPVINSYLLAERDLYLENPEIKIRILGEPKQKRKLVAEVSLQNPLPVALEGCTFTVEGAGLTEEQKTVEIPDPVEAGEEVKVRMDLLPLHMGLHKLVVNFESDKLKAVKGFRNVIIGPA

[2] = tested on: humans; conditions: cited from earlier work

Row | SMILES | IC50 [1] | Safety and tolerability [2]
1 | CC(=O)CSc1n(C)c(C)c(C)[n+]1C [L‐682.777] | ~250 nM | –
2 | CCC(CC)CNC(=O)Cn1cccc(NC(=O)[C@H](CC/C=C/C(=O)OC)NC(=O)c2cncn2C)c1=O [ZED1227] | – | safe and well tolerated
